One block for each molecule: values may come before it.
Tests used:
[1] = test system: K. pneumoniae ATCC BAA-1705 (KPC2); assay: Disk zone of inhibition, antibiotic + Compound-1 on same disk (Methodology 2); format: cell-based, Klebsiella pneumoniae; settings: CAZ 30 μg or IPM 10 μg disk alone
From the text: (§1) In this experiment, Compound-1 is used as a diagnostic reagent for the detection of β-lactamases belonging to the families KPC & ESBL (e.g., SHV18) producing Enterobacteriaceae. A simple set of absorbent paper disks impregnated with antibiotic on agar medium is used for the detection.
(§2) • 0.5 McFarland of the test organism was inoculated at 1:10 dilution on Muller • Hinton Agar plates • Test organisms: Klebsiella pneumoniae (K.p) ATCC BAA-1705, Klebsiella pneumoniae ATCC 700603, Escherichia coli (E.c) Ecoli233 • Carbapenem (e.g., Imipenem [IPM] 10 μg) and cephalosporin (e.g., Ceftazidime [CAZ] 30 μg) paper disks (7 mm) were placed on the inoculated agar plates • Compound-1 (60 μg) disk was placed at a distance of 7 & 10 mm from the carbapenem and cephalosporin disks. • The presence of expressed carbapenemases or ESBLs was measured as the expansion of Imipenem or Ceftazidime's inhibition zones due to synergy in the presence of Compound-1.
(§3) The methodology remains the same as Methodology 1 except the following change • Compound-1 (60 μg) was added on the same disk in combination with a carbapenem (e.g., Imipenem 10 μg) or cephalosporin (e.g., Ceftazidime 30 μg) and placed on the inoculated agar plate. • The presence of the expressed carbapenemases or ESBLs was measured as an increase in Imipenem or Ceftazidime's zone diameter in combination with Compound-1 compared to antibiotic alone. Results

E. coli Ecoli233 (KPC3) [2] = assay: as above; format: cell-based, Escherichia coli; settings: CAZ 30 μg or IPM 10 μg disk alone
From the text: as §1, §2, §3

[3] = test system: K. pneumoniae ATCC 700603 (SHV18); assay: as above; format: cell-based, Klebsiella pneumoniae; settings: CAZ 30 μg or IPM 10 μg disk alone
From the text: as §1
as §2, with “Compound-1. Results:” for “Compound-1.”
as §3

[4] = test system: E. coli ATCC 25922 (β-lac-ve); assay: as above; format: cell-based, Escherichia coli; settings: CAZ 30 μg or IPM 10 μg disk alone; ATCC 25922
[5] = test system: KPC-2 producing K. pneumoniae (ATCC BAA-1705); assay: Synergistic broth micro-dilution MIC (checkerboard); format: cell-based, Klebsiella pneumoniae
[6] = test system: KPC-3 expressing E. coli (J53 R6206); assay: as above; format: cell-based, Escherichia coli; settings: no BLI
[7] = test system: K. pneumoniae UMM3 (KPC2); assay: Synergistic broth micro-dilution MIC; format: cell-based, Klebsiella pneumoniae; settings: BLI at 4 μg/mL
[8] = test system: E. cloacae 01 MGH 049 (KPC2, AmpC); assay: Synergistic broth micro-dilution MIC; format: cell-based; settings: BLI at 4 μg/mL
E. coli Ecoli233 (KPC3) [9] = assay: Synergistic broth micro-dilution MIC; format: cell-based, Escherichia coli
[10] = test system: K. pneumoniae NCTC 13438 (KPC3); assay: Synergistic broth micro-dilution MIC; format: cell-based, Klebsiella pneumoniae; settings: BLI at 4 μg/mL
E. coli BAA-201 (TEM-3) = assay: MIC of Piperacillin with inhibitor, ESBL isolates; format: cell-based
E. coli BAA-197 (TEM-12) = assay: MIC of Piperacillin with inhibitor, ESBL isolates; format: cell-based, Escherichia coli
E. coli BAA-198 (TEM-26) = assay: MIC of Piperacillin with inhibitor, ESBL isolates; format: cell-based, Escherichia coli
[11] = test system: P. mirabilis BAA-663 (TEM-89); assay: MIC of Piperacillin with inhibitor, ESBL isolates; format: cell-based
E. coli BAA-199 (SHV-3) = assay: MIC of Piperacillin with inhibitor, ESBL isolates; format: cell-based, Escherichia coli
E. coli BAA-200 (SHV-4) = assay: MIC of Piperacillin with inhibitor, ESBL isolates; format: cell-based, Escherichia coli
[12] = test system: K. pneumoniae 700603 (SHV-18); assay: MIC of Piperacillin with inhibitor, ESBL isolates; format: cell-based, Klebsiella pneumoniae

Compound: CC(C)(O/N=C(\C(=O)N[C@@H]1C(=O)N2C(C(=O)[O-])=C(C[n+]3ccccc3)CS[C@H]12)c1csc(N)n1)C(=O)O [Ceftazidime]
- Zone of inhibition (ZOI), antibiotic alone [1]: 12 mm
- Zone of inhibition (ZOI), antibiotic alone (E. coli Ecoli233 (KPC3) [2]): 11 mm
- Zone of inhibition (ZOI), antibiotic alone [3]: 12 mm
- Zone of inhibition (ZOI), antibiotic alone [4]: 25 mm
- MIC ([5]; Klebsiella pneumoniae, ATCCBAA1705, no BLI, ATCC BAA-1705, read-out: MIC of antibiotic alone (no BLI)): > 128 µg/mL
- MIC of antibiotic alone (no BLI) [6]: >32 µg/mL

- MIC of Imipenem in combination with BLI ([5]; BLI at 4 μg/mL, ATCC BAA-1705): 4 µg/mL
- MIC of Imipenem in combination with BLI ([5]; BLI at 16 μg/mL, ATCC BAA-1705): 4 µg/mL
- MIC of Imipenem in combination with BLI [7]: 2 µg/mL
- MIC of Imipenem in combination with BLI [8]: 8 µg/mL
- MIC of Imipenem in combination with BLI (E. coli Ecoli233 (KPC3) [9]; BLI at 4 μg/mL): 4 µg/mL
- MIC of Imipenem in combination with BLI (E. coli Ecoli233 (KPC3) [9]; BLI at 16 μg/mL): 1 µg/mL
- MIC of Imipenem in combination with BLI [10]: 64 µg/mL
- MIC of Piperacillin with inhibitor (E. coli BAA-201 (TEM-3); inhibitor at 1 μg/mL): 2 µg/mL
- MIC of Piperacillin with inhibitor (E. coli BAA-201 (TEM-3); inhibitor at 2 μg/mL): 4 µg/mL
- MIC of Piperacillin with inhibitor (E. coli BAA-201 (TEM-3); inhibitor at 4 μg/mL): 4 µg/mL
- MIC of Piperacillin with inhibitor (E. coli BAA-197 (TEM-12); inhibitor at 1 μg/mL): 4 µg/mL
- MIC of Piperacillin with inhibitor (E. coli BAA-197 (TEM-12); inhibitor at 2 μg/mL): 4 µg/mL
- MIC of Piperacillin with inhibitor (E. coli BAA-197 (TEM-12); inhibitor at 4 μg/mL): 4 µg/mL
- MIC of Piperacillin with inhibitor (E. coli BAA-198 (TEM-26); inhibitor at 1 μg/mL): 4 µg/mL
- MIC of Piperacillin with inhibitor (E. coli BAA-198 (TEM-26); inhibitor at 2 μg/mL): 4 µg/mL
- MIC of Piperacillin with inhibitor (E. coli BAA-198 (TEM-26); inhibitor at 4 μg/mL): 4 µg/mL
- MIC of Piperacillin with inhibitor ([11]; inhibitor at 1 μg/mL): 8 µg/mL
- MIC of Piperacillin with inhibitor ([11]; inhibitor at 2 μg/mL): 16 µg/mL
- MIC of Piperacillin with inhibitor ([11]; inhibitor at 4 μg/mL): >128 µg/mL
- MIC of Piperacillin with inhibitor (E. coli BAA-199 (SHV-3); inhibitor at 1 μg/mL): >128 µg/mL
- MIC of Piperacillin with inhibitor (E. coli BAA-199 (SHV-3); inhibitor at 2 μg/mL): >128 µg/mL
- MIC of Piperacillin with inhibitor (E. coli BAA-199 (SHV-3); inhibitor at 4 μg/mL): 2 µg/mL
- MIC of Piperacillin with inhibitor (E. coli BAA-200 (SHV-4); inhibitor at 1 μg/mL): 32 µg/mL
- MIC of Piperacillin with inhibitor (E. coli BAA-200 (SHV-4); inhibitor at 2 μg/mL): 8 µg/mL
- MIC of Piperacillin with inhibitor (E. coli BAA-200 (SHV-4); inhibitor at 4 μg/mL): 4 µg/mL
- MIC of Piperacillin with inhibitor ([12]; inhibitor at 1 μg/mL): 8 µg/mL
- MIC of Piperacillin with inhibitor ([12]; inhibitor at 2 μg/mL): 16 µg/mL
- MIC of Piperacillin with inhibitor ([12]; inhibitor at 4 μg/mL): 8 µg/mL
Compound: C[n+]1ccn(C[C@@]2(C)[C@H](C(=O)[O-])N3C(=O)C[C@H]3S2(=O)=O)c1 [Compound-12, (2S,3S,5R)-3-Methyl-3-(3-methyl-imidazol-3-ium-1-ylmethyl)-4,4,7-trioxo-4-thia-1-azabicyclo[3.2.0]heptane-2-carboxylate]
- Activity with imipenem against the KPC (2 & 3) producing strains, in words ([5]; summary of Table 2, all five strains): improved activity

Source: patent US10201532B2, “Compounds and their use” (ALLECRA THERAPEUTICS GMBH, priority 2010, dated 2019)
